Measurements taken from ChEMBL document CHEMBL1201862, “PubChem BioAssay data set” (2004).
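Values below derive from 48-hour exposures of cells grown in 96-well plates, with endpoints linearly interpolated between the two concentrations bracketing the appropriate inhibition level. Here, GI50 denotes the concentration required for 50% inhibition of growth.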 The source made the active and inactive calls. Cut-off read from the data, not from the text of the source: active = GI50 up to about 1.1 µM and inactive = higher.

What was measured:
Assay in all cases: NCI tumour cell line growth inhibition, 48 h
[1] = system: SNB-19
[2] = system: SK-MEL-5
[3] = system: SF-539
[4] = system: UACC-257
[5] = system: TK-10
[6] = system: CAKI-1
[7] = system: NCI/ADR-RES
[8] = system: LOX IMVI
[9] = system: BT-549
[10] = system: SK-MEL-28
[11] = system: ACHN
[12] = system: M14
[13] = system: HCT-15
[14] = system: SF-268
[15] = system: UO-31
[16] = system: A549
[17] = system: RPMI-8226
[18] = system: NCI-H522
[19] = system: OVCAR-5
[20] = system: SW-620
[21] = system: MDA-MB-231
[22] = system: NCI-H226
[23] = system: MCF7
[24] = system: Malme-3M
[25] = system: MDA-N
[26] = system: HCT-116
[27] = system: SNB-75
[28] = system: MDA-MB-435
[29] = system: T47D
[30] = system: OVCAR-8
[31] = system: K562
[32] = system: U-251
[33] = system: HOP-92
[34] = system: MOLT-4
[35] = system: DU-145
[36] = system: A498
[37] = system: EKVX
[38] = system: SR
[39] = system: SK-MEL-2
[40] = system: 786-0
[41] = system: IGROV-1
[42] = system: UACC-62
[43] = system: PC-3
[44] = system: SF-295
[45] = system: SN12C
[46] = system: NCI-H460
[47] = system: NCI-H23
[48] = system: RXF 393
[49] = system: OVCAR-4
[50] = system: Hs-578T
[51] = system: KM12
[52] = system: COLO 205
[53] = system: HT-29
[54] = system: SK-OV-3
[55] = system: HL-60
[56] = system: HCC 2998
[57] = system: CCRF-CEM
[58] = system: HOP-62
[59] = system: OVCAR-3

Measured: GI50

O=S(=O)(Cc1cnc(O)nc1O)Cc1cnc(O)nc1O
inactive: [1] > 100 µM | [2] > 100 µM | [3] > 100 µM | [4] > 100 µM | [5] > 100 µM | [6] > 100 µM | [7] > 100 µM | [8] > 100 µM | [9] > 100 µM | [10] > 100 µM | [11] > 100 µM | [12] > 100 µM | [14] > 100 µM | [15] > 100 µM | [16] > 100 µM | [17] > 100 µM | [18] > 100 µM | [19] > 100 µM | [20] > 100 µM | [21] > 100 µM | [22] > 100 µM | [23] > 100 µM | [24] > 100 µM | [25] > 100 µM | [26] > 100 µM | [27] > 100 µM | [28] > 100 µM | [29] > 100 µM | [30] > 100 µM | [31] > 100 µM | [32] > 100 µM | [33] > 100 µM | [34] > 100 µM | [35] > 100 µM | [36] > 100 µM | [37] > 100 µM | [38] 37.8 µM | [39] > 100 µM | [40] > 100 µM | [41] > 100 µM | [42] > 100 µM | [43] > 100 µM | [44] > 100 µM | [45] > 100 µM | [46] > 100 µM | [47] > 100 µM | [48] > 100 µM | [49] > 100 µM | [50] > 100 µM | [51] > 100 µM | [52] > 100 µM | [53] > 100 µM
> 100 µM: [13]

O=C1CC2(CCC(O)(c3ccco3)C(C(=O)c3ccco3)C2)C(=O)c2ccccc2N1 (centres undefined)
inactive: [54] > 100 µM | [2] 51.4 µM | [55] 27.3 µM | [56] 55.8 µM | [3] > 100 µM | [4] > 100 µM | [5] > 100 µM | [6] > 100 µM | [7] 64.6 µM | [8] 48.6 µM | [9] 92 µM | [12] 99.5 µM | [14] > 100 µM | [15] 24.7 µM | [16] > 100 µM | [19] > 100 µM | [20] > 100 µM | [21] > 100 µM | [22] > 100 µM | [57] > 10 µM | [23] > 100 µM | [24] > 100 µM | [25] > 100 µM | [26] 88.7 µM | [27] 32.2 µM | [28] > 100 µM | [29] 26.1 µM | [30] 86.9 µM | [31] 50.1 µM | [32] > 100 µM | [33] 56.9 µM | [35] > 100 µM | [36] > 100 µM | [58] > 100 µM | [37] > 100 µM | [38] > 100 µM | [39] > 100 µM | [59] 84.7 µM | [41] 99.1 µM | [42] > 100 µM | [43] 54 µM | [44] > 100 µM | [45] > 100 µM | [46] 29.5 µM | [47] > 100 µM | [48] > 100 µM | [49] 17.3 µM | [50] 55.1 µM | [52] > 100 µM | [53] > 100 µM
53.8 µM: [13]
